Measurements taken from patent US20240398781A1, “SPIROCYCLIC CYCLIC MODULATORS OF CHOLESTEROL BIOSYNTHESIS AND THEIR USE FOR PROMOTING REMYELINATION” (GENENTECH, INC., priority 2021, published 2024).
pEC50, pKi: −log10 of the molar value. Where two headings read alike, the source gives them in different places.

Experiments:
[1] = biological target: human emopamil binding protein and human 7-dehydrocholesterol reductase co-expressing cells (hEBP-DHCR7 membrane) (Homo sapiens (Human), UniProt Q15125); experiment: Radioligand filter binding assay on hEBP-DHCR7 membrane; conditions: [3H]-(S)-6-(2-Methyl-3-(6-(trifluoromethyl)pyridin-3-yl)propyl)-2-thia-6-azaspiro[3.4]octane 2,2-dioxide radioligand, HEK293 membrane co-expressing hEBP and hDHCR7
Sequence of human emopamil binding protein and human 7-dehydrocholesterol reductase co-expressing cells (hEBP-DHCR7 membrane) (Q15125 whole entry): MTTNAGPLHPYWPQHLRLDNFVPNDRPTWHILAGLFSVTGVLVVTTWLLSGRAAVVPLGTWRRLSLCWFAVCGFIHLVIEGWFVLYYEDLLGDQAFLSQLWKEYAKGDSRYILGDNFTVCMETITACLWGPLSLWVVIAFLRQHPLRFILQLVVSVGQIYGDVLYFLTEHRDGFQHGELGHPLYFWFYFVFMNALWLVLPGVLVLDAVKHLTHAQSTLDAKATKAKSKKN
Method in brief: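 HEK293 cells transiently co-expressing human EBP and DHCR7 supplied whole-cell membranes (10 μg/well), incubated 3 h at 22 °C with [3H]-labelled spiro-octane dioxide ligand (added at 25 nM) and compound (0.06-5000 nM final, 8 doses, n=2). Bound ligand was collected on PEI-treated GF/B filters and counted by scintillation. IC50 was Hill-fitted from % inhibition and reported as Ki.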

[2] = test system: EBP (zymostenol accumulation in EpiSC-derived OPCs); experiment: GC/MS-based sterol profiling, zymostenol accumulation in OPCs; assay type: cell-based, mouse; conditions: Mus musculus, 24 h, read-out: Zymostenol GCMS EC50
Method in brief: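 EpiSC-derived OPCs (100,000/well) were treated 24 h in N2B27 without growth factors. Sterols were TMS-derivatized and analysed by GC/MS full-scan EI, quantified against cholesterol-d7. Zymostenol was normalized to the level after 24 h with 100 nM positive control reference.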

[3] = EpiSC-derived OPCs, 24 hr treatment, 8 doses from 0.15 nM to 333 nM

O=S1(=O)CC2(CCN([C@H]3CC[C@@H](c4ccc(C(F)(F)F)cc4)CC3)C2)C1 [Compound 3B, 6-((1s,4s)-4-(4-(trifluoromethyl)phenyl)cyclohexyl)-2-thia-6-azaspiro[3.4]octane 2,2-dioxide]
pKi [1]: 7.56
pEC50 [2, 3]: 7.80

CC(C)n1nc(C2CC2)nc1[C@@H]1CC[C@H](N2CCC3(C2)CS(=O)(=O)C3)C1 (single isomer, unassigned) [18A*]
pKi [1]: 6.02
pEC50 [2]: 7.14

O=S1(=O)CC2(CCN(C3CCN(c4ncc(C(F)(F)F)cc4Cl)CC3)C2)C1 [Compound 30, 6-(1-(3-chloro-5-(trifluoromethyl)pyridin-2-yl)piperidin-4-yl)-2-thia-6-azaspiro[3.4]octane 2,2-dioxide]
pKi [1]: 7.89
pEC50 [2, 3]: 8.30

O=S1(=O)CC2(CCN([C@@H]3CCN(c4ccc(C(F)(F)F)nc4)C3)C2)C1 (single isomer, unassigned) [9B*]
pKi [1]: 6.61
pEC50 [2, 3]: 6.40

O=S1(=O)CC2(CCN([C@H]3CC[C@H](c4cc(C(F)(F)F)n(C5CCC5)n4)CC3)C2)C1 [Compound 24, 6-((1r,4r)-4-(1-cyclobutyl-5-(trifluoromethyl)-1H-pyrazol-3-yl)cyclohexyl)-2-thia-6-azaspiro[3.4]octane 2,2-dioxide]
pKi [1]: 7.96
pEC50 [2, 3]: 8.52

Cc1cc(C(F)(F)F)ncc1[C@H]1CC[C@@H](N2CCC3(C2)CS(=O)(=O)C3)CC1 [Compound 21A, 6-((1s,4s)-4-(4-Methyl-6-(trifluoromethyl)pyridin-3-yl)cyclohexyl)-2-thia-6-azaspiro[3.4]octane 2,2-dioxide]
pKi [1]: 7.49
pEC50 [2, 3]: 7.92

CC(C)n1nc(-c2cncc(C(F)(F)F)c2)cc1[C@H]1CC[C@@H](N2CCC3(C2)CS(=O)(=O)C3)C1 (single isomer, unassigned) [13A*]
pKi [1]: 8.16
pEC50 [2, 3]: 9.04

O=S1(=O)CC2(CCN([C@H]3CC[C@@H](c4cc(C(F)(F)F)nn4C4CCC4)CC3)C2)C1 [Compound 23A, 6-((1s,4s)-4-(1-Cyclobutyl-3-(trifluoromethyl)-1H-pyrazol-5-yl)cyclohexyl)-2-thia-6-azaspiro[3.4]octane 2,2-dioxide]
pKi [1]: 7.68
pEC50 [2, 3]: 7.51
